From the Kinase Knowledgebase extract (Sharma et al. 2016)

Each compound was assayed against PIK3CG (UniProt P48736) (assay: Inhibition of PIK3CG Kinase Activity).
Chain of PIK3CG (P48736 whole entry, looked up): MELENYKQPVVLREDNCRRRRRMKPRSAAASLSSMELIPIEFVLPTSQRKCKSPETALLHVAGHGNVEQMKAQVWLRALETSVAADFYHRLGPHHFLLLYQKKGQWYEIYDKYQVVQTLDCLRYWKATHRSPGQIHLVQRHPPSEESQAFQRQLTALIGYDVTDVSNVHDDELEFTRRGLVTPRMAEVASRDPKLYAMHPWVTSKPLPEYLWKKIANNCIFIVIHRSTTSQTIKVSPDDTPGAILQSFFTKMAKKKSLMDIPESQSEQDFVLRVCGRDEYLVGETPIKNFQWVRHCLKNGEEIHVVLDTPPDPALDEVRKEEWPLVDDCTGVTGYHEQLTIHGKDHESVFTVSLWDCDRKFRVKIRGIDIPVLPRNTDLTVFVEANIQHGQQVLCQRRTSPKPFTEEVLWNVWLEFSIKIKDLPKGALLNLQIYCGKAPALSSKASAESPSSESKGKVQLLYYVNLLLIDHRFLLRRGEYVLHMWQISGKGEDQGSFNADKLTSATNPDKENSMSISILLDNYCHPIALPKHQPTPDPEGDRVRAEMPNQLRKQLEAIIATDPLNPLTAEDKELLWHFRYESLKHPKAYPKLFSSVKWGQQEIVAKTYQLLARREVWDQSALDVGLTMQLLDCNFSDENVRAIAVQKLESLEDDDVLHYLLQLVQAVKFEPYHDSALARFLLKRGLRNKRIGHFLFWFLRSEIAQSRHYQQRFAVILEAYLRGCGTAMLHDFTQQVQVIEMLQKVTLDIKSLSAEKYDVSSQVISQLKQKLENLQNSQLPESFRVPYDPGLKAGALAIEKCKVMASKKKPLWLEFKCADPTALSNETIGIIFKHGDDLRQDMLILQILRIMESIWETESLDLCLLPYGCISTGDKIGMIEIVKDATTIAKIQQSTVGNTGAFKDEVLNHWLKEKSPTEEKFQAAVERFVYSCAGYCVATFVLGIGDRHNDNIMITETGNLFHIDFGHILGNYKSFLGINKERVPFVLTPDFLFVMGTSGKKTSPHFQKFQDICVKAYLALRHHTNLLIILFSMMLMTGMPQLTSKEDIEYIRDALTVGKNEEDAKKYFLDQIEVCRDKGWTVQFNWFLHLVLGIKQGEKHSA

Compound	IC50
CCOC(=O)N1CCC(Cc2ccc(CN3C(=O)COc4ccc(C=C5SC(=S)NC5=O)cc43)cc2)CC1	52 nM
O=C1NC(=S)SC1=Cc1cc(F)c2c(c1)N(CCCN1CCOCC1)C(=O)CO2	55 nM
CN1C(=O)COC2C=CC(C=C3OC(=S)NC3=O)=CC21 (stereo not given)	16 nM
O=C1NC(=S)SC1=Cc1cc(F)c2c(c1)N(Cc1ccc(F)c(Cl)c1)C(=O)CO2	2 nM
COc1ccc(CCCN2C(=O)COc3ccc(C=C4SC(=O)NC4=O)cc32)cc1	18 nM
CC(C)(C)c1cc(O)cc(CN2C(=O)COc3ccc(C=C4SC(=S)NC4=O)cc32)c1	22 nM
CC(C)(C)c1cc(CN2C(=O)COc3c(F)cc(C=C4SC(=S)NC4=O)cc32)cc(C(C)(C)O)c1	5 nM
CC(C)(C)c1cc(C(C)(C)C)nc(CN2C(=O)COc3ccc(C=C4SC(=S)NC4=O)cc32)n1	2070 nM
O=C1NC(=S)SC1=Cc1ccc2c(c1)N(CCc1ccc(C(F)(F)F)cc1C(F)(F)F)C(=O)CO2	14 nM
CC(C)(C)c1cc(C(C)(C)C)nc(CN2C(=O)COc3c(F)cc(C=C4SC(=S)NC4=O)cc32)n1	1240 nM

The next lines start with the values.

IC50	Compound
42 nM	CCN1C(=O)COc2ccc(C=C3SC(=S)NC3=O)cc21
3180 nM	CC(C)(C)OC(=O)N1CCC(C(=O)CN2C(=O)COc3ccc(C=C4SC(=S)NC4=O)cc32)CC1
18.5 nM	CC1CC(C)CN(CCCN2C(=O)COc3c(F)cc(C=C4SC(=S)NC4=O)cc32)C1 (stereo not given)
2 nM	O=C1NC(=S)SC1=Cc1ccc2c(c1)N(CC1CCCCC1)C(=O)CO2
32 nM	CCOC(=O)N1CCC(Cc2ccc(CN3C(=O)COc4ccc(C=C5SC(=O)NC5=O)cc43)cc2)CC1
